Test results reported in patent US20210154281A1, “CELL-BASED CANCER VACCINES AND CANCER THERAPIES” (Massachusetts Institute of Technology, priority 2019, published 2021).
Read-outs that look alike come from different tables or passages of the source.

Key:
Format in all cases: cell-based, mouse
B16-Ova cells = test: In vitro cross presentation assay: drug-treated B16-Ova cells, BMDC and OT-1 CD8+ T-cells, IFN-γ+ T-cells by flow cytometry; parameters: reduction of the percentage of IFNg+ T-cells by siRNA knockdown of calreticulin / reduction of T-cell IFN-γ responses / frequency of IFN-γ+ T-cells: concentration or dose not given beside the values
Description: B16-Ova or MC-38 Ova cells were treated with various doses of chemotherapeutic drugs for 24 h followed by extensive washing in IMDM (10% FBS, P/S). Subsequently 1×10^6 treated cells were co-cultured with 2.5×10^5 BMDC per well of a 24-well plate for each condition tested. After 24 hours of co-culture, supernatants were removed from each well and the BMDC washed 2-3 times in T-cell media (RPMI containing 10% FBS, 20 mM HEPES, 1 mM sodium pyruvate, 55 uM b-mercaptoethanol, 2 mM L-glutamine, nonessential amino acids and antibiotics). CD8+OT-I T-cells isolated from spleens of OT-I mice were then co-cultured with the BMDC at 125,000 T-cells per well to achieve an effector to target ratio of 0.5. Where indicated, BMDC and/or T-cells were also exposed to chemotherapy drugs. After a 12-15 h incubation, IFN-g producing T-cells were identified and quantified by intra-cellular cytokine staining and flow cytometry using a BD LSR II or Fortessa flow cytometer. Cells were first gated for CD3 expression, then re-gated for CD8 and IFNg expression.
An experimental system was developed to assess dendritic cell-mediated T-cell priming using the B16-Ova cells, in combination with primary bone-marrow derived dendritic cells (BMDC) and OT-I CD8+ T-cells expressing a TCR transgene that specifically recognizes the Ova-derived peptide […] (SEQ ID NO:1) in the context of H2-Kb (OT-1) (Clarke, et al., Immunol Cell Biol., 78(2):110-7 (2000); Hogquist, et al., Cell, 76(1):17-27 (1994)). […] The treated B16-Ova cells/BMDC co-culture was then incubated with purified CD8+ T-cells obtained from the spleens of OT-1 mice, and the appearance of IFNg+CD8 T-cells was measured 12-15 hours later by intracellular staining and subsequent quantification using flow cytometry.

[1] = system: B16F10 melanoma tumor cell line; test: Cell death by AnnexinV/DAPI staining 48 hours after drug treatment; details: for cell death by DAPI and Annexin V staining: at the concentrations used
Description: For assessment of cell death, floating and attached cells were harvested after 48 hours of treatment with the indicated chemotherapeutic drugs. Attached cells were detached using 5 mM EDTA in PBS. The recovered cells were centrifuged at 250×g for 5 minutes, washed once in PBS containing 0.9 mM Ca2+ and 0.5 mM Mg2+ and then stained with AnnV-FITC for 15 minutes in Annexin binding buffer at room temperature according to the manufacturer's protocol (Biolegend). Cells were co-stained with DAPI at a final concentration of 1 μg/ml for 2 minutes in Annexin binding buffer, brought to a final volume of 500 ul using PBS containing 0.9 mM Ca2^+ and 0.5 mM Mg2^+ and analyzed by flow cytometry.
To identify how DNA-damaging chemotherapy could be optimally used to enhance anti-tumor immune function, cytotoxicity assays were performed using the B16F10 melanoma tumor cell line expressing ovalbumin (B16-Ova). Cells were treated with clinically used chemotherapeutic agents followed by assaying for cell death by DAPI and Annexin V staining 48 hours later.

[2] = Cell viability (survival) assay with CellTiter-Glo, 48 hours; details: mouse, 48 hours, normalized to DMSO-treated control cells
Description: (§1) For assays of survival, 15,000 cells were plated per well in a 96-well plate in 100 μl media with 5 replicates per condition. Wells along the four edges of the plate were not used. Following cell attachment, the indicated drugs were added in an equal volume of media, and incubated for an additional 48 hours. The media was then removed and replaced with 100 ul of fresh media at room temperature. Following a 30 minute incubation at room temperature, 50 μl of CellTiter-Glo reagent was added, followed by 2 minutes of gentle mixing. The plate was incubated at room temperature for an additional 10 minutes. 100 μl of supernatant was transferred to a 96-well white opaque plate and luminescence was read on a Tecan microplate reader. Values were normalized to those of DMSO-treated control cells.

[3] = system: B16F10 melanoma tumor cell line; test: as above; details: for Cell viability (%) MEAN: 48 hours, normalized to DMSO-treated control cells
Description: as §1

[4] = co-treatment of B16-Ova cells with etoposide
[5] = co-treatment of B16-Ova cells with mitoxantrone
[6] = Mus musculus, B16-F10, 48 h, read-out: AnnV+DAPI+ (%) Mean
[7] = Mus musculus, B16-F10, 48 h, read-out: AnnV+DAPI− (%) Mean
[8] = Mus musculus, B16-F10, 48 h, read-out: AnnV−DAPI+ (%) Mean
[9] = Mus musculus, B16-F10, 48 h, read-out: AnnV−DAPI− (%) Mean

In the case of Z-VAD, the “reduction of T-cell IFN-γ responses / frequency of IFN-γ+ T-cells” value (B16-Ova cells; [4]) is reported as roughly 12% and the “reduction of T-cell IFN-γ responses / frequency of IFN-γ+ T-cells” value (B16-Ova cells; [5]) is reported as “no effect”.
With O=P1(N(CCCl)CCCl)NCCCO1 (stereo not drawn) [CPM, cyclophosphamide] the “cell death by DAPI and Annexin V staining” value (“cell death” for short) ([1]; 48 hours) was “did not induce substantial amounts of cell death”, the cytotoxicity at 40 µM [1, 6] was 7.7% and the cytotoxicity at 200 µM [1, 6] was 11%. The cytotoxicity at 40 µM [1, 7] was 1.44%, the cytotoxicity at 200 µM [1, 7] was 1.09% and the cytotoxicity at 40 µM [1, 8] was 0.82%. For the same molecule, the cytotoxicity at 200 µM [1, 8] was 0.88%, the viability at 40 µM [1, 9] was 90% and the viability at 200 µM [1, 9] was 87%. For the same molecule, the viability at 48 h, 40 µM ([2]; 40 uM) was 98.5% and the viability at 48 h, 200 µM ([2]; 200 uM) was 101%.
In the case of N.N.[Cl][Pt][Cl] [Cis, cisplatin], the “AnnV+DAPI+ (%) Mean” value ([1]; 10 uM, 48 hours) is reported as 2.76%, the “AnnV+DAPI− (%) Mean” value ([1]; 10 uM, 48 hours) is reported as 3.68% and the “AnnV−DAPI+ (%) Mean” value ([1]; 10 uM, 48 hours) is reported as 0.32%. For the same molecule, the “AnnV−DAPI− (%) Mean” value ([1]; 10 uM, 48 hours) was 93.25%, the “AnnV+DAPI+ (%) Mean” value ([1]; 50 uM, 48 hours) was 18.75% and the “AnnV+DAPI− (%) Mean” value ([1]; 50 uM, 48 hours) was 46.80%. For the same molecule, the “AnnV−DAPI+ (%) Mean” value ([1]; 50 uM, 48 hours) was 2.96%, the “AnnV−DAPI− (%) Mean” value ([1]; 50 uM, 48 hours) was 31.55% and the “cell death” value ([1]; 48 hours) was “caused varying extents of apoptotic and non-apoptotic cell death”.
With Cc1ccc(-c2ccc3c(ccc4sc5c(c43)NC[C@@H](C)NC5=O)n2)cn1 [PF-3644022] the “BMDC-mediated T-cell priming” value (B16-Ova cells; [4]) was “enhances BMDC-mediated T-cell priming”.
In the case of CC[C@@]1(O)C(=O)OCc2c1cc1n(c2=O)Cc2cc3ccccc3nc2-1 [CPT, camptothecin], the “cell death” value ([1]; 48 hours) is reported as “did not induce substantial amounts of cell death”, the cytotoxicity at 0.05 µM ([1]; Mus musculus, B16-F10, 50 nM, 48 hours, read-out: AnnV+DAPI+ (%) Mean) is reported as 7.03% and the cytotoxicity at 0.05 µM ([1]; Mus musculus, B16-F10, 50 nM, 48 hours, read-out: AnnV+DAPI− (%) Mean) is reported as 1.26%. For the same molecule, the cytotoxicity at 0.05 µM ([1]; Mus musculus, B16-F10, 50 nM, 48 hours, read-out: AnnV−DAPI+ (%) Mean) was 1.35%, the viability at 0.05 µM ([1]; Mus musculus, B16-F10, 50 nM, 48 hours, read-out: AnnV−DAPI− (%) Mean) was 90.4% and the cytotoxicity at 0.25 µM ([1]; Mus musculus, B16-F10, 250 nM, 48 hours, read-out: AnnV+DAPI+ (%) Mean) was 4.71%. For the same molecule, the cytotoxicity at 0.25 µM ([1]; Mus musculus, B16-F10, 250 nM, 48 hours, read-out: AnnV+DAPI− (%) Mean) was 4.35%, the cytotoxicity at 0.25 µM ([1]; Mus musculus, B16-F10, 250 nM, 48 hours, read-out: AnnV−DAPI+ (%) Mean) was 0.58% and the viability at 0.25 µM ([1]; Mus musculus, B16-F10, 250 nM, 48 hours, read-out: AnnV−DAPI− (%) Mean) was 90.3%. The viability at 48 h, 0.25 µM ([2]; B16F10 melanoma tumor cells, 0.25 uM) was 77.6% and the viability at 48 h, 0.05 uM ([2]; B16F10 melanoma tumor cells, .05 uM) was 91.1%.
In the case of CN1C(=O)C(Cc2c[nH]c3ccccc23)NC1=S (stereo not drawn) [necrostatin-1], the “ability of drug-treated B16-Ova cells co-cultured with BMDCs to induce IFN-g in T-cells” value (B16-Ova cells; co-treatment with etoposide or mitoxantrone) is reported as “inhibited the ability of both etoposide and mitoxantrone-treated B16-Ova cells”.
With O=C1[O][Pt]2([NH][C@@H]3CCCC[C@H]3[NH]2)[O]C1=O [Oxal, oxaliplatin] the “AnnV+DAPI+ (%) Mean” value ([1]; 10 uM, 48 hours) was 1.73%, the “AnnV+DAPI− (%) Mean” value ([1]; 10 uM, 48 hours) was 2.65% and the “AnnV−DAPI+ (%) Mean” value ([1]; 10 uM, 48 hours) was 1.11%. The “AnnV−DAPI− (%) Mean” value ([1]; 10 uM, 48 hours) was 94.50%, the “AnnV+DAPI+ (%) Mean” value ([1]; 50 uM, 48 hours) was 4.25% and the “AnnV+DAPI− (%) Mean” value ([1]; 50 uM, 48 hours) was 4.23%. For the same molecule, the “AnnV−DAPI+ (%) Mean” value ([1]; 50 uM, 48 hours) was 1.09%, the “AnnV−DAPI− (%) Mean” value ([1]; 50 uM, 48 hours) was 90.45% and the “cell death” value ([1]; 48 hours) was “did not induce substantial amounts of cell death”. For the same molecule, the “Cell viability (%) MEAN” value ([3]; 10 uM) was 45.09%, the “Cell viability (%) MEAN” value ([3]; 50 uM) was 44.21% and the growth arrest ([3]; at the concentrations used) was “caused some degree of growth arrest”.
For CC(C)(C)c1ccc(S(=O)(=O)/C=C/C#N)cc1 [Bay11-7085], the “BMDC-mediated T-cell priming” value (B16-Ova cells; [4]) was “inhibits BMDC-mediated T-cell priming”, the “reduction of T-cell IFN-γ responses / frequency of IFN-γ+ T-cells” value (B16-Ova cells; [4]) was greater than 90% and the “reduction of T-cell IFN-γ responses / frequency of IFN-γ+ T-cells” value (B16-Ova cells; [5]) was greater than 50%.
With Oc1ccc(-c2nc(-c3ccncc3)c(-c3ccc(F)cc3)[nH]2)cc1 [SB202190] the “reduction of T-cell IFN-γ responses / frequency of IFN-γ+ T-cells” value (B16-Ova cells; [4]) was roughly 22% and the “reduction of T-cell IFN-γ responses / frequency of IFN-γ+ T-cells” value (B16-Ova cells; [5]) was “nearly abrogated”.
With O=c1[nH]cc(F)c(=O)[nH]1 [5-FU, 5-fluorouracil] the “cell death” value ([1]; 48 hours) was “caused varying extents of apoptotic and non-apoptotic cell death”, the cytotoxicity at 10 µM ([1]; Mus musculus, B16-F10, 10 uM, 48 hours, read-out: AnnV+DAPI+ (%) Mean) was 5.29% and the cytotoxicity at 10 µM ([1]; Mus musculus, B16-F10, 10 uM, 48 hours, read-out: AnnV+DAPI− (%) Mean) was 9.5%. It also gave a cytotoxicity at 10 µM ([1]; Mus musculus, B16-F10, 10 uM, 48 hours, read-out: AnnV−DAPI+ (%) Mean) of 1.23%, a viability at 10 µM ([1]; Mus musculus, B16-F10, 10 uM, 48 hours, read-out: AnnV−DAPI− (%) Mean) of 84% and a cytotoxicity at 50 µM ([1]; Mus musculus, B16-F10, 50 uM, 48 hours, read-out: AnnV+DAPI+ (%) Mean) of 6.78%. It also gave a cytotoxicity at 50 µM ([1]; Mus musculus, B16-F10, 50 uM, 48 hours, read-out: AnnV+DAPI− (%) Mean) of 28.1%, a cytotoxicity at 50 µM ([1]; Mus musculus, B16-F10, 50 uM, 48 hours, read-out: AnnV−DAPI+ (%) Mean) of 1.33% and a viability at 50 µM ([1]; Mus musculus, B16-F10, 50 uM, 48 hours, read-out: AnnV−DAPI− (%) Mean) of 63.9%. It also gave a viability at 48 h, 10 µM ([2]; B16F10 melanoma tumor cells, 10 uM) of 49% and a viability at 48 h, 50 µM ([2]; B16F10 melanoma tumor cells, 50 uM) of 42.8%.
